For assay [1], the target named is T1, human PHD2 (Homo sapiens, UniProt Q9GZT9).
T1 construct: made in house; host or cells: Sf9 insect cells (baculovirus, pVL1393 vector)
As to the kind of experiment: Measurement of human PHD inhibitory activity (TR-FRET, hydroxylation of HIF-1α partial peptide). As to conditions: human PHD2 enzyme 1 nM, 25° C. 30 min, values consisting solely of numbers. The class given is biochemical. How it is done: Human PHD2 was expressed in insect cell (Sf9 cell). […] The vector and baculovirus were cotransfected into Sf9, and human PHD2 expression baculovirus was isolated in Sf9. By using the virus, human PHD2-expressed cell was prepared. […] The cell lysate was flowed into a column filled with ANTI-FLAG M2 Affinity Gel Freezer Safe (SIGMA), washed, and the N-terminal FLAG-tag-added human PHD2 was eluted and collected.
VBC complex (VHL/Elongin B/Elongin C) was expressed in Escherichia coli (BL21(DE3)). […] After these expression vectors were transfected into Escherichia coli (BL21(DE3)), Escherichia coli was cultured at 37° C. in the medium containing IPTG. The collected Escherichia coli was disrupted by sonication and flowed into a column filled with Ni-NTA superflow (QIAGEN), washed, and the product was eluted and collected. The eluate was flowed into a column filled with Glutathione Sepharose 4B, washed, and the product was eluted and collected. […]
As for human PHD2 enzyme activity, hydroxylation of proline residue contained in the 19 residues of the partial peptide based on the sequence of HIF-1α as a substrate was measured by TR-FRET (Time-Resolved Fluorescence Resonance Energy Transfer) method.
A test compound and a substrate solution were added to a 96-well plate. The reaction was started by addition of a human PHD2 enzyme solution (final concentration 1 nM) to the reaction system. After incubation at 25° C. for 30 min, a stop solution containing EDTA was added, and a VBC complex solution containing europium (Eu) and Xlent was added, and the amount of hydroxylated proline residue was quantified by time-resolved fluorescence spectroscopy. The time-resolved fluorescence in each well was measured, and the human PHD inhibitory activity (%) of the test compound was calculated based on the values of enzyme non-addition well and test compound non-addition well.
(Time-resolved FRET reads energy transfer from a long-lived donor to a nearby acceptor.)

The test system of assay [2] is human EPO production, Hep3B cells. As to the kind of experiment: Human EPO production activity in Hep3B cells (EPO-ELISA of culture supernatant). As to conditions: for EC50: 24 hr incubation, values consisting solely of numbers, read-out: EC50 (μM) in vitro, human EPO production activity; for production activity (%) at 30 μM in vitro, human EPO: 24 hr, values containing %, relative to maximum production. The class given is cell-based. How it is done:
The activity of the test compound on human EPO production was measured using Hep3B (AMC) established from human liver-derived cell line.
Hep3B cells were cultured in Eagle-MEM medium containing 10% fetal bovine serum, and the test compound was diluted with dimethyl sulfoxide (DMSO).
Hep3B cells were cultured in a 96-well plate, and a test compound was added at each concentration 24 hr later. After incubation at 37° C. for 24 hr, the culture supernatant was collected. The concentration of human EPO produced in the culture supernatant was measured using a human EPO-ELISA kit (manufactured by StemCell Technologies, 01630) according to the manufacturer's explanation, and the human EPO production activity (%) of the test compound was calculated based on the maximum value of production under the above conditions and the value without addition of the test compound. […] In these Tables, the values consisting solely of numbers show EC50 (μM) and those containing % show human EPO production activity (%) at […].
Background: An ELISA detects its analyte on a solid surface through an enzyme-linked reagent.

[3] abbreviates: read-out: IC50 (μM) in vitro, human PHD inhibitory activity.

The record followed here is US8283465B2, “Triazolopyridine compound, and action thereof as prolyl hydroxylase inhibitor or erythropoietin production-inducing agent” (Japan Tobacco Inc., priority 2009, dated 2012).

Counter-ions that a name gives are not always drawn. Like-named read-outs stand apart in the source and are kept apart here.

T1 sequence (Q9GZT9 whole entry): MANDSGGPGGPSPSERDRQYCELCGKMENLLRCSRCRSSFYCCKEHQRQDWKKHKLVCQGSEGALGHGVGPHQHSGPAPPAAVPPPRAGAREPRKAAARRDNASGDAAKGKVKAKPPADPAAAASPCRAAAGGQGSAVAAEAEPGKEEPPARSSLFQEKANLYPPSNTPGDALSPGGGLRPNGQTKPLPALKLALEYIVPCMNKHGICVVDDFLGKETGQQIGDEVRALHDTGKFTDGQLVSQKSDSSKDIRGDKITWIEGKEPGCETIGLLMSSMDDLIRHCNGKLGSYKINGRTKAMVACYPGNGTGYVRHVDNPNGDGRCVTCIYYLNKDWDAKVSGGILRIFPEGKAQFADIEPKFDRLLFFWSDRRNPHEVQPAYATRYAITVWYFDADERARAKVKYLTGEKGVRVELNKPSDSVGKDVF

In general, IC50 refers to the concentration needed to halve the response being measured. In general, EC50 refers to the concentration that produces a half-maximal response. Take `O=C(O)CNC(=O)c1c(O)cc(-c2ccc(F)c(C(F)(F)F)c2)n2ncnc12` [Example 1, {[5-(4-fluoro-3-trifluoromethylphenyl)-7-hydroxy[1,2,4]triazolo[1,5-a]pyridine-8-carbonyl]amino}acetic acid hydrochloride]: the half-maximal inhibitory concentration (IC50) in assay [1] (setting [3]) is 0.42 µM. Further, the EC50 in assay [2] (Homo sapiens) came to 9.9 µM. For the compound `O=C(O)CNC(=O)c1c(O)cc(CCc2ccccc2)n2ncnc12` [Example 2, [(7-hydroxy-5-phenethyl[1,2,4]triazolo[1,5-a]pyridine-8-carbonyl)amino]acetic acid hydrochloride], in assay [1] (IC50 (μM) in vitro, human PHD inhibitory activity), the IC50 was 0.22 µM. In addition, the EC50 in assay [2] (Homo sapiens, Hep3B, 24 h) came out at 10.9 µM.

For `CCCCc1cc(O)c(C(=O)NCC(=O)O)c2ncnn12` [Example 3, [(5-butyl-7-hydroxy[1,2,4]triazolo[1,5-a]pyridine-8-carbonyl)amino]acetic acid hydrochloride], the 50% effective concentration (EC50) in assay [2] (Homo sapiens, Hep3B, 24 h) was found to be 12.4 µM. For `CCc1c(O)c(C(=O)NCC(=O)O)c2ncnn2c1CC.Cl` [Example 4, [(5,6-diethyl-7-hydroxy[1,2,4]triazolo[1,5-a]pyridine-8-carbonyl)amino]acetic acid hydrochloride], in assay [2], the “production activity (%) at 30 μM in vitro, human EPO” value (“production activity (%) at 30 μM” for short) came to 38%.

For the compound `O=C(O)CNC(=O)c1c(O)c(CCc2ccccc2)cn2ncnc12` [Example 5, [(7-hydroxy-6-phenethyl[1,2,4]triazolo[1,5-a]pyridine-8-carbonyl)amino]acetic acid hydrochloride], in assay [1] (setting [3]), the IC50 came to 1.17 µM. Further, the EC50 in assay [2] (Homo sapiens) was found to be 11.5 µM. As for `CCCCc1c(Cl)c(O)c(C(=O)NCC(=O)O)c2ncnn12` [Example 6, [(5-butyl-6-chloro-7-hydroxy[1,2,4]triazolo[1,5-a]pyridine-8-carbonyl)amino]acetic acid hydrochloride], in assay [1] (setting [3]), the concentration for half-maximal inhibition (IC50) is 0.87 µM. The EC50 in assay [2] (Homo sapiens) stood at 20.8 µM. As to `Cc1nc2c(C(=O)NCC(=O)O)c(O)cc(CCc3ccccc3)n2n1` [Example 7, [(7-hydroxy-2-methyl-5-phenethyl[1,2,4]triazolo[1,5-a]pyridine-8-carbonyl)amino]acetic acid hydrochloride], in assay [2] (Homo sapiens, Hep3B, 24 h), the EC50 is 18.4 µM.

With `CC(C)(C)CCc1cc(O)c(C(=O)NCC(=O)O)n2ncnc12` [Example 8, {[8-(3,3-dimethyl-butyl)-6-hydroxy[1,2,4]triazolo[1,5-a]pyridine-5-carbonyl]amino}acetic acid hydrochloride], in assay [1] (setting [3]), the IC50 is 0.49 µM. The EC50 in assay [2] (Homo sapiens) worked out at 13.4 µM. In the case of `O=C(O)CNC(=O)c1c(O)c(-c2ccccc2)cn2cnnc12` [Example 9, [(7-hydroxy-6-phenyl[1,2,4]triazolo[4,3-a]pyridine-8-carbonyl)amino]acetic acid], the 50% inhibitory concentration (IC50) in assay [1] (setting [3]) worked out at 1.57 µM. Also, the “production activity (%) at 30 μM” value in assay [2] is 1%.

With `O=C(O)CNC(=O)c1c(O)ccn2cnnc12` [Example 10, [(7-hydroxy[1,2,4]triazolo[4,3-a]pyridine-8-carbonyl)amino]acetic acid hydrochloride], the “production activity (%) at 30 μM” value in assay [2] is 0%. `O=C(O)CNC(=O)c1c(O)ccc2cnnn12` [Example 11, [(6-hydroxy[1,2,3]triazolo[1,5-a]pyridine-7-carbonyl)amino]acetic acid]: the half-inhibitory concentration (IC50) in assay [1] (setting [3]) was 0.29 µM. Moreover, in assay [2], the “production activity (%) at 30 μM” value came out at 1%.

For the compound `O=C(O)CNC(=O)c1c(O)ccn2ncnc12` [Example 12, [(7-hydroxy[1,2,4]triazolo[1,5-a]pyridine-8-carbonyl)amino]acetic acid hydrochloride], in assay [2], the “production activity (%) at 30 μM” value is 5%. On to `O=C(O)CNC(=O)c1c(O)cc(CCc2ccc(F)cc2)n2ncnc12` [Example 17, ({5-[2-(4-fluorophenyl)ethyl]-7-hydroxy[1,2,4]triazolo[1,5-a]pyridine-8-carbonyl}amino)acetic acid hydrochloride], for which, in assay [2] (Homo sapiens, Hep3B, 24 h), the EC50 stood at 8.8 µM.

In the case of `O=C(O)CNC(=O)c1c(O)cc(-c2ccccc2)n2ncnc12` [Example 22, [(7-hydroxy-5-phenyl[1,2,4]triazolo[1,5-a]pyridine-8-carbonyl)amino]acetic acid hydrochloride], the 50% effective concentration (EC50) in assay [2] (Homo sapiens, Hep3B, 24 h) was determined as 13.7 µM. Take `O=C(O)CNC(=O)c1c(O)cc(C2CCCCC2)n2ncnc12` [Example 27, [(5-cyclohexyl-7-hydroxy[1,2,4]triazolo[1,5-a]pyridine-8-carbonyl)amino]acetic acid hydrochloride]: the EC50 in assay [2] (Homo sapiens, Hep3B, 24 h) worked out at 7.7 µM.

For `O=C(O)CNC(=O)c1c(O)cc(-c2cccc(Cl)c2)n2ncnc12` [Example 44, {[5-(3-chlorophenyl)-7-hydroxy[1,2,4]triazolo[1,5-a]pyridine-8-carbonyl]amino}acetic acid], in assay [2] (Homo sapiens, Hep3B, 24 h), the EC50 came out at 10.4 µM. With `CCCc1cc(O)c(C(=O)NCC(=O)O)c2ncnn12` [Example 65, [(7-hydroxy-5-propyl[1,2,4]triazolo[1,5-a]pyridine-8-carbonyl)amino] acetic acid hydrochloride], the “production activity (%) at 30 μM” value in assay [2] was 49%. Take `CCCCCc1cn2ncnc2c(C(=O)NCC(=O)O)c1O` [Example 71, [(7-hydroxy-6-pentyl[1,2,4]triazolo[1,5-a]pyridine-8-carbonyl)amino] acetic acid hydrochloride]: the EC50 in assay [2] (Homo sapiens, Hep3B, 24 h) is 15.8 µM. On to `CCCCCc1cc(O)c(C(=O)NCC(=O)O)c2ncnn12` [Example 74, [(7-hydroxy-5-pentyl[1,2,4]triazolo[1,5-a]pyridine-8-carbonyl)amino] acetic acid hydrochloride], for which, in assay [2] (Homo sapiens, Hep3B, 24 h), the concentration giving a half-maximal response (EC50) was determined as 8.3 µM.

Take `O=C(O)CNC(=O)c1c(O)cc(-c2ccccc2)c2ncnn12` [Example 83, [(6-hydroxy-8-phenyl[1,2,4]triazolo[1,5-a]pyridine-5-carbonyl)amino] acetic acid hydrochloride]: in assay [2] (Homo sapiens, Hep3B, 24 h), the EC50 was found to be 20.7 µM. As to `O=C(O)CNC(=O)c1c(O)cc(-c2cccc(Cl)c2)c2ncnn12` [Example 84, {[8-(3-chlorophenyl)-6-hydroxy[1,2,4]triazolo[1,5-a]pyridine-5-carbonyl]amino} acetic acid], in assay [2] (Homo sapiens, Hep3B, 24 h), the EC50 amounted to 11 µM. Consider `O=C(O)CNC(=O)c1c(O)cc(CCc2ccccc2)c2ncnn12` [Example 87, [(6-hydroxy-8 phenethyl[1,2,4]triazolo[1,5-a]pyridine-5-carbonyl)amino] acetic acid hydrochloride], for which the EC50 in assay [2] (Homo sapiens, Hep3B, 24 h) came out at 18.5 µM.

As for `O=C(O)CNC(=O)c1c(O)cc(C2CCCCC2)c2ncnn12` [Example 92, [(8-cyclohexyl-6-hydroxy[1,2,4]triazolo[1,5-a]pyridine-8-carbonyl]amino] acetic acid hydrochloride], in assay [2] (Homo sapiens, Hep3B, 24 h), the EC50 came to 18.5 µM. Turning to `Cl.O=C(O)CNC(=O)c1c(O)ccc2ncnn12` [Example 107, [(6-hydroxy[1,2,4]triazolo[1,5-a]pyridine-5-carbonyl]amino} acetic acid hydrochloride], in assay [2], the “production activity (%) at 30 μM” value came out at 4%. Turning to `CCCCc1cc(O)c(C(=O)NCC(=O)O)c2ncnn12` [Example 117, [(5-butyl-7-hydroxy[1,2,4]triazolo[1,5-a]pyridine-8-carbonyl)amino] acetic acid], the EC50 in assay [2] was 7.7 µM.

Regarding `O=C(O)CNC(=O)c1c(O)cc(-c2cc(F)cc(C(F)(F)F)c2)n2ncnc12` [Example 118, {[5-(3-fluoro-5-trifluoromethyl phenyl)-7-hydroxy[1,2,4]triazolo[1,5-a]pyridine-8-carbonyl]amino} acetic acid], the concentration for half-maximal inhibition (IC50) in assay [1] (setting [3]) was found to be 0.64 µM. With `O=C(O)CNC(=O)c1c(O)cc(-c2ccc(F)c(C(F)(F)F)c2)n2ncnc12` [Example 121, {[5-(4-fluoro-3-trifluoromethyl phenyl)-7-hydroxy[1,2,4]triazolo[1,5-a]pyridine-8-carbonyl]amino} acetic acid], in assay [1] (setting [3]), the IC50 is 0.33 µM. The same measure, in the same setting: the figure for `O=C(O)CNC(=O)c1c(O)cc(-c2cc(F)cc(C3CC3)c2)n2ncnc12` [Example 122, {[5-(3-cyclopropyl-5-fluorophenyl)-7-hydroxy[1,2,4]triazolo[1,5-a]pyridine-8-carbonyl]amino} acetic acid] is 0.96 µM.
